# Data published in US5281710A, “Dynemicin analogs: synthesis, methods of preparation and use” (The Scripps Research Institute, priority 1992, dated 1994).
# pIC50: −log10 of the molar value. Read-outs that look alike come from different tables or passages of the source.
# Experiments:
# [1] = tested on: Ovcar-3 ovarian carcinoma cells; assay: Sulforhodamine B cytotoxicity, Ovcar-3; type: cell-based; settings: read-out: Cytotoxicity (IC50)
# Procedure: (§1) In addition to the screening already discussed, several of the before-described compounds and chimeras were screened against several or all of a panel of ten to twenty-five cancerous cell lines as target cells and seven "normal" cell preparations. This screening utilized a sulforhodamine B cytotoxidity assay as discussed below.
# (§2) IC50 values; i.e., the concentration of Compound required to kill one-half of the treated cells, were then calculated.
# [2] = tested on: MOLT-4 (Leukemia) cell line; assay: cells; type: cell-based; settings: read-out: Cytotoxicity (IC50)
# Procedure: as §1, §2
# [3] = tested on: tumor cells and "normal" cells; assay: Relative activity against tumor cells and normal cells; type: cell-based
# Excerpt: In contrast, 100 percent of normal human mammary epithelial cells (HMEC) were viable at the same concentration.
# SK-Mel-28 melanoma cells = assay: Sulforhodamine B cytotoxicity, SK-Mel-28; type: cell-based
# Procedure: as §1, §2
# [4] = tested on: P-388 mouse lymphoma cells; assay: Sulforhodamine B cytotoxicity, P-388; type: cell-based; settings: Table 7, P-388, read-out: Cytotoxicity (IC50)
# Procedure: as §1, §2
# in vitro = type: cell-based, human; settings: human, nhdf cells; Table 7, NHDF; read-out: Cytotoxicity (IC50)
# Procedure: as §1, §2
# (§3) NHDF Normal human dermal fibroblasts
# [5] = tested on: H-322 lung carcinoma cells; assay: Sulforhodamine B cytotoxicity, H-322; type: cell-based; settings: Table 7, H-322; for pIC50: NCI-H322, read-out: Cytotoxicity (IC50)
# Procedure: as §1, §2
# [6] = tested on: HL-60 promyeocytic leukemia cells; assay: Sulforhodamine B cytotoxicity, HL-60; type: cell-based
# Procedure: as §1, §2
# φX174 Form I DNA = assay: φX174 supercoiled DNA cleavage, agarose gel; type: biochemical; settings: for DNA cleavage: 37° C.
# Procedure: The ethereal solution of Compound 40 produced by the LiAlH4 reduction of Compound 21 (39 mg, 0.10 mmol) was evaporated in vacuo to dryness and the residue dissolved in THF (4 mL) to give a 25 mM solution of Compound 40, assuming complete conversion of Compound 21. […]
# Thus, a vial containing a 50 micromolar per base pair solution […] of the same buffer solution and 2.0 microliters of a 5.0 millimolar ethanol solution of Compound 40.
# […] A 2.0 microliter portion of glycerol loading buffer solution containing bromothymol blue indicator was added to each vial. A 10 microliter aliquot was then drawn from each. Gel electrophoresis analysis of the aliquots was performed using a 1.0 percent agarose gel with ethidium bromide run at 115 volts for 1 hour. DNA cleavage was indicated by the formation of nicked relaxed circular DNA (form II) or linearized DNA (form III), which was detected by visual inspection of the gel under 310 nanometer ultraviolet light using ethidium bromide.
# [7] = tested on: MCF-7 breast carcinoma cells; assay: Sulforhodamine B cytotoxicity, MCF-7; type: cell-based; settings: Table 7, MCF-7, read-out: Cytotoxicity (IC50)
# Procedure: as §1, §2
# [8] = tested on: Capan-1 pancreatic carcinoma cells; assay: Sulforhodamine B cytotoxicity, Capan-1; type: cell-based
# Procedure: as §1, §2
# [9] = Sulforhodamine B cytotoxicity, CHO; type: cell-based, Chinese hamster; settings: hamster, cho cells; Table 7, CHO; read-out: Cytotoxicity (IC50)
# Procedure: as §1, §2
# [10] = tested on: HT-29 colon carcinoma cells; assay: Sulforhodamine B cytotoxicity, HT-29; type: cell-based; settings: Table 7, HT-29, read-out: Cytotoxicity (IC50)
# Procedure: as §1, §2
# [11] = tested on: UCLA P-3 non-small cell lung carcinoma cells; assay: Sulforhodamine B cytotoxicity, UCLA-P3; type: cell-based, human; settings: read-out: Cytotoxicity (IC50)
# Procedure: as §1, §2
# UCLA P-3 Dr. D. Morton, University of California, […]
# [12] = tested on: NHDF normal human dermal fibroblasts; assay: in vitro; type: cell-based; settings: Table 7, NHDF
# Procedure: as §1, §2, §3
# [13] = tested on: CHO Chinese hamster ovary cells; assay: Sulforhodamine B cytotoxicity, CHO; type: cell-based; settings: Table 7, CHO
# Procedure: as §1, §2
# cancer cell lines = assay: cells; type: cell-based; settings: Average data obtained from 5~10 cell lines; read-out: IC50 (average)
# Procedure: as §1
# SULFORHODAMINE B CYTOTOXICITY ASSAY
# a. Stock drug solutions were prepared by dissolving drug in the appropriate solvent (determined during chemical characterization studies) and sterile filtering the drug-solvent solution through a sterile 0.2μ filter unit. An aliquot was taken from each filtered drug solution and the O.D. was measured to determine the drug concentration.
# f. Incubate (37° C., 5-10 percent CO2 in humidified incubator) plates for a total of 72 hours. Check plates at 24 hour intervals microscopically for signs of cytotoxicity.
# as §2
# All other cells or cell lines were obtained from the American Type Culture Collection (ATCC) (all except CHO cells are human or mouse cancer cell lines as described by the ATC).
# Tables 1 and 2 herein below provide average IC50 data from five to all ten of the above cancer cells lines for fused ring enediyne compounds disclosed herein. Those tables provide a generic structure and a description of the R group of that generic structure for each compound. Compound numbers as noted hereinbefore are also provided. Table 3 contains data for two fused-ring enediyne compounds (Compounds 47 and 120) as well as data for six chimers. Table 4 contains cancer cell and noraml cell cytotoxicity data for one select fused ring enediyne, Compound 153 against a number of "normal" cell preparations and tumor cell lines. Table 5 contains cancer cell and normal cell cytotoxicity data for another fused ring enediyne, Compound 250 against a similar panel of cells.
# [14] = tested on: 93 base-pair Sal I - Sph I double-stranded DNA fragment of pBR322; assay: DNase I footprinting of oligosaccharide glycosides; type: binding; settings: 37° C., 30 minutes pre-incubation
# Excerpt: Footprinting studies the O-methyl glycosides of saccharides A, an analog of C, F, G and H, Compounds A-1, C'-1, F-1, G-1 and H-1, respecitvely, as shown below, were designed to probe these questions.
# The oligosaccharides A-1, C'-1, F-1, G-1 and H-1 were obtained by chemical synthesis following procedures similar to those discussed before. The 93 base-pair Sal I - Sph I double-stranded DNA fragment of pBR322 was obtained enzymatically and was [5-^32 P]-labeled on one strand. pBR322 DNA was cleaved at the unique Sal I site, dephosphorylated using calf intestine phosphatase, (5'-^32 P]-phosphorylated using T4 polynucletide kinase and [g-^32 P] ATP (4.5 ^m Ci/pmol) , and cleaved again at the unique Sph I site. These precursors generated a 93 base-pair double-stranded fragment, (5'-^32 P)-labeled at the Sal I end, which was purified by gel electrophosresis in a nondenaturing 10 percent polyacrylamide gel and subsequent column chromatography on Sephadex G-25. The oligosaccharides were pre-incubated with the DNA fragment at 37° C. for 30 minutes and DNase I was added to cleave the DNA and generate footprinting patterns by autoradiography.
# The degree of protection against DNase I digestion offered by both the natural and unnatural stereoisomers was determined by comparing the amount of radioactivity in adjacent lanes along the electrophoresis gel. […]
# [15] = Lethal dose / toxicity in mice; type: in vivo, mouse
# [16] = tested on: MCF-7(ADR) breast carcinoma cells; assay: Sulforhodamine B cytotoxicity, MCF-7/ADR; type: cell-based; settings: Homo sapiens, NCI/ADR-RES, Adriamycin resistant
# Procedure: as §1, §2
# [17] = tested on: P-388 leukemia cells in Balb/c mice; assay: In vivo P-388 leukemia in Balb/c mice; design: species or system mouse; settings: single dose
# Procedure: In an in vivo study whose results are shown in FIG. 8, Balb/c mice were injected intra-peritoneally with 10^6 P-388 leukemia cells per mouse (the cells were suspended in 100 μl RPMI medium) on day zero. Therapy was started on day 1 by injecting each group of four animals with the indicated dose of Compound 45, which was administered only once in this assay. The course of therapy was followed by tumor-induced weight change in the animals and by recording death incidents (arrows). […] At the dose of 25 mg/kg Compound 45, the increase in life span over the control group was 175 percent (therapeutic group/control group).
# [18] = tested on: SK-Mel-28, M-14, M-21, Capan-1, Ovcar-3, Ovcar-4, UCLA-P-3, U-87, U-251 and Molt-4 cell lines; type: cell-based; settings: ten tumor cell lines
# Procedure: In other studies, IC50 values were determined for the anti-tumor agents dynemicin A, calicheamicin γ1^I, taxol, vinblastine/vincristine, doxorubicin, actinomycin D and bleomycin sulfate against the SK-Mel-28, M-14, M-21, Capan-1, Ovcar-3, Ovcar-4, UCLA-P-3, U-87, U-251 and Molt-4 cell lines.
# [19] = Homo sapiens, SK-MEL-28, Table 7, SK-Mel-28, read-out: Cytotoxicity (IC50)
# [20] = Table 7, HL-60, read-out: Cytotoxicity (IC50)
# [21] = 5.0 mM, pH 8.5 and 9.0, 48 hours
# [22] = Table 7, Capan-1, read-out: Cytotoxicity (IC50)
# [23] = Homo sapiens, OVCAR-3, Table 7, Ovcar-3
# [24] = Homo sapiens, HL-60, Table 7, HL-60, read-out: Cytotoxicity (IC50)
# [25] = Homo sapiens, CAPAN-1, Table 7, Capan-1, read-out: Cytotoxicity (IC50)
# [26] = Homo sapiens, UCLA P-3, Table 7, UCLA-P3
compound,measurement,setting,value
CC(COC(=O)N1c2ccccc2C23OC24CCCC3C#CC=CC#CC14)S(=O)(=O)c1ccccc1 (stereo not shown) [Compound 427],pIC50,"[1]; Table 7, Ovcar-3",5.51
same,pIC50,"[2]; Table 7, Molt-4",9.00
same,selectivity between normal and cancer cells (qualitative),[3],reduced cytotoxicity of Compound 427 against normal cell lines while maintaining considerable activity against cancer cell lines
same,pIC50,SK-Mel-28 melanoma cells; [19],4.30
same,pIC50,"[4]; Mus musculus, P388",5.80
same,CC50,in vitro,< 100 µM
same,pIC50,[5],4.89
same,pIC50,[6]; [20],6.11
same,DNA cleavage,φX174 Form I DNA; [21],greatly reduced in vitro DNA cleaving ability
same,pIC50,[7]; 4320 min,4.60
same,pIC50,[8]; [22],5.51
same,CC50,[9],< 100 µM
same,pIC50,[10]; 4320 min,6.11
same,pIC50,"[11]; Table 7, UCLA-P3",5.51
CC(C)(COC(=O)N1c2ccccc2[C@@]23O[C@]24CCC[C@H]3C#C/C=C\C#C[C@H]14)S(=O)(=O)c1ccccc1 (relative stereo) [Compound 429],pIC50,[1]; [23],4.30
same,pIC50,"[2]; Homo sapiens, MOLT-4, Table 7, Molt-4",4.00
same,pIC50,SK-Mel-28 melanoma cells; [19],> 4.00
same,pIC50,"[4]; Mus musculus, P388",4.89
same,Cytotoxicity (IC50),[12],Non-Toxic
same,pIC50,[5],4.30
same,pIC50,[6]; [24],4.60
same,DNA cleavage,φX174 Form I DNA; [21],no DNA cleaving ability
same,pIC50,"[7]; Homo sapiens, MCF7, 72 h",4.60
same,pIC50,[8]; [25],4.30
same,Cytotoxicity (IC50),[13],Non-Toxic
same,pIC50,"[10]; Homo sapiens, HT-29, 72 h",4.60
same,pIC50,[11]; [26],4.30
O=C(Oc1ccccc1)N1c2ccccc2C23OC24CCCC3C#C/C=C\C#CC14 (stereo not shown) [Compound 21],pIC50,[1]; [23],6.11
same,pIC50,SK-Mel-28 melanoma cells; [19],4.20
same,pIC50,"[4]; Mus musculus, P388",7.01
same,pIC50,cancer cell lines,5.30
same,CC50,in vitro,6.3 µM
same,pIC50,[5],5.51
same,pIC50,[6]; [24],7.01
same,pIC50,"[7]; Homo sapiens, MCF7, 72 h",5.51
same,pIC50,[8]; [25],7.11
same,CC50,[9],6.3 µM
same,pIC50,"[10]; Homo sapiens, HT-29, 72 h",6.41
same,pIC50,[11]; [26],6.11
CCNC1COC(OC2C(OC)OC(C)C(NOC3CC(O)C(SC(=O)c4c(C)c(I)c(OC5OC(C)C(O)C(OC)C5O)c(OC)c4OC)C(C)O3)C2O)CC1OC (stereo not shown) [Compound G-1],protection of DNA against DNase I,[14],no protection at the same concentrations
CCNC1COC(OC2C(OC)OC(C)C(NOC3CC(O)C(SC(=O)c4c(C)c(I)c(OC5OC(C)C(O)C(OC)C5O)c(OC)c4OC)C(C)O3)C2O)CC1OC (stereo not shown) [Compound F-1],protection of DNA against DNase I,[14],concentration-dependent protection
O=C(OCCS(=O)(=O)c1ccccc1)N1c2ccccc2C23OC24CCCC3C#C/C=C\C#CC14 (stereo not shown) [Compound 45],pIC50,"SK-Mel-28 melanoma cells; Homo sapiens, SK-MEL-28, SK-Mel-28, read-out: IC50",5.20
same,pIC50,cancer cell lines,6.70
same,toxicity relative to naturally occurring enediynes,[15],significantly less than naturally occurring enediynes
same,LD50,"[15]; mouse, in vivo",~50 mg/kg
same,pIC50,[16],5.80
same,pIC50,"[6]; Homo sapiens, HL-60, HL-60, read-out: IC50",5.41
same,DNA cleavage,"φX174 Form I DNA; pH 8.5, 24 or 48 hours",strong DNA cleavage activity
same,DNA cleavage potency,"φX174 Form I DNA; pH 8.5, 1000 and 100 μM",comparable potencies
same,pIC50,"[8]; Homo sapiens, CAPAN-1, Capan-1, read-out: IC50",5.80
same,deaths / weight course,[17]; 12 mg/kg,three of the four animals died
same,increase in life span over control group,[17]; 25 mg/kg,175%
same,time to death,"[17]; 50 mg/kg, rapid weight loss",≤ 8 days
CC(COC(=O)N1c2ccccc2C23OC24CCCC3C#CC=CC#CC14)S(=O)(=O)c1ccccc1 (stereo not shown) [Compound 428],pIC50,"[1]; Table 7, Ovcar-3",4.89
same,pIC50,"[2]; Table 7, Molt-4",6.00
same,pIC50,"SK-Mel-28 melanoma cells; Table 7, SK-Mel-28, read-out: Cytotoxicity (IC50)",> 4.00
same,pIC50,[4],5.80
same,CC50,[12]; read-out: Cytotoxicity (IC50),< 100 µM
same,Cytotoxicity (IC50),[5],Non-Toxic
same,pIC50,[6]; [20],5.80
same,DNA cleavage,φX174 Form I DNA; [21],greatly reduced in vitro DNA cleaving ability
same,pIC50,[7]; 4320 min,> 4.00
same,pIC50,[8]; [22],5.20
same,CC50,[13]; read-out: Cytotoxicity (IC50),< 100 µM
same,pIC50,[10]; 4320 min,4.89
same,pIC50,"[11]; Table 7, UCLA-P3",4.89
bleomycin sulfate [reference compound],relative potency among agents across cell lines,[18],considerably less active against all the cell lines
